Reference: ChEMBL document CHEMBL1641496, “Imidazolylchromanone oxime ethers as potential anticonvulsant agents: Anticonvulsive evaluation in PTZ-kindling model of epilepsy and SAR study” (Bioorg Med Chem Lett, 2011)

How the values were obtained:
Rattus norvegicus [1] = experiment: Anticonvulsant activity against PTZ-induced kindling Wistar rat model assessed as seizure latency at 30 mg/kg, ip; assay type: functional; conditions: route intraperitoneal
Rattus norvegicus [2] = experiment: Anticonvulsant activity against PTZ-induced kindling Wistar rat model assessed as duration of behavirol seizure at 30 mg/kg, ip; assay type: functional; conditions: route intraperitoneal
Rattus norvegicus [3] = experiment: Anticonvulsant activity against PTZ-induced kindling Wistar rat model assessed as seizure latency at 100 mg/kg, ip; assay type: functional; conditions: route intraperitoneal
Rattus norvegicus [4] = experiment: Anticonvulsant activity against PTZ-induced kindling Wistar rat model assessed as duration of behavirol seizure at 100 mg/kg, ip; assay type: functional; conditions: route intraperitoneal
Rattus norvegicus [5] = experiment: Anticonvulsant activity against PTZ-induced kindling Wistar rat model assessed as seizure latency at 200 mg/kg, ip; assay type: functional; conditions: route intraperitoneal
Rattus norvegicus [6] = experiment: Anticonvulsant activity against PTZ-induced kindling Wistar rat model assessed as duration of behavirol seizure at 200 mg/kg, ip; assay type: functional; conditions: route intraperitoneal
Rattus norvegicus [7] = experiment: Neurotoxicity in Wistar rat at 30 mg/kg, ip by rotarod test; assay type: toxicity, organism-based; parameters: dose 30 mg/kg, route intraperitoneal; conditions: in vivo
Rattus norvegicus [8] = experiment: Neurotoxicity in Wistar rat assessed as motor impairment at 30 mg/kg, ip by rotarod test; assay type: toxicity, organism-based; parameters: dose 30 mg/kg, route intraperitoneal; conditions: in vivo
Rattus norvegicus [9] = experiment: Neurotoxicity in Wistar rat assessed as motor impairment at 100 mg/kg, ip by rotarod test; assay type: toxicity, organism-based; parameters: dose 100 mg/kg, route intraperitoneal; conditions: in vivo

Structure (SMILES) | Time (Rattus norvegicus [1]) | Time (Rattus norvegicus [2]) | further results
CC1Oc2ccccc2/C(=N/OCc2ccc(Br)cc2)C1n1ccnc1.O=[N+]([O-])O (racemic) | 305 s | 51.3 s | 
Clc1ccc(CO/N=C2\c3ccccc3OCC2n2ccnc2)cc1Cl.O=[N+]([O-])O (racemic) | 266 s | 51.8 s | 
CCCC(CCC)C(=O)[O-].[Na+] [VALPROATE SODIUM] |  |  | Time (Rattus norvegicus [3]): 817 s; Time (Rattus norvegicus [4]): 40.5 s; Time (Rattus norvegicus [5]): 900 s; Time (Rattus norvegicus [6]): 26.5 s
CC1Oc2ccccc2/C(=N/OCc2cccc(F)c2)C1n1ccnc1.O=[N+]([O-])O (racemic) | 321 s | 51.5 s | 
Clc1ccc2c(c1)OCC(n1ccnc1)/C2=N\OCc1ccccc1.O=[N+]([O-])O (racemic) | 323 s | 46.7 s | 
CC1Oc2cc(Cl)ccc2/C(=N/OCc2ccccc2)C1n1ccnc1.O=[N+]([O-])O (racemic) | 282 s | 50.7 s | 
Clc1ccc(CO/N=C2/c3ccc(Cl)cc3OCC2n2ccnc2)cc1.O=[N+]([O-])O (racemic) | 467 s | 47 s | 
CC1Oc2ccccc2/C(=N/OCc2ccc(Cl)cc2)C1n1ccnc1.O=[N+]([O-])O (racemic) | 286 s | 49.7 s | 
Clc1ccc2c(c1)OCC(n1ccnc1)/C2=N\OCc1ccc(Cl)c(Cl)c1.O=[N+]([O-])O (racemic) | 271 s | 48.5 s | 
Brc1ccc(CO/N=C2\c3ccccc3OCC2n2ccnc2)cc1.O=[N+]([O-])O (racemic) | 261 s | 56.5 s | 
CC1Oc2ccccc2/C(=N/OCc2ccccc2)C1n1ccnc1.O=[N+]([O-])O (racemic) | 259 s | 52.7 s | 
CC1Oc2ccccc2/C(=N/OCc2ccccc2F)C1n1ccnc1.O=[N+]([O-])O (racemic) | 254 s | 51.7 s | 
Clc1ccc(CO/N=C2/c3ccc(Cl)cc3OCC2n2ccnc2)c(Cl)c1.O=[N+]([O-])O (racemic) | 715 s | 40.3 s | Activity (Rattus norvegicus [7]): Non-toxic; Activity (Rattus norvegicus [8]): 25%
CC1Oc2ccccc2/C(=N/OCc2ccc(F)cc2)C1n1ccnc1.O=[N+]([O-])O (racemic) | 263 s | 52.3 s | 
Clc1ccc(CO/N=C2/c3ccccc3OCC2n2ccnc2)cc1Cl.O=[N+]([O-])O (racemic) | 285 s | 50.3 s | 
O=[N+]([O-])O.c1ccc(CO/N=C2/c3ccccc3OCC2n2ccnc2)cc1 (racemic) | 274 s | 49.8 s | 
Brc1ccc(CO/N=C2/c3ccccc3OCC2n2ccnc2)cc1.O=[N+]([O-])O (racemic) | 268 s | 54.8 s | 
Clc1ccc(CO/N=C2\c3ccccc3OCC2n2ccnc2)cc1.O=[N+]([O-])O (racemic) | 258 s | 51 s | 
Clc1ccc(CO/N=C2\c3ccccc3OCC2n2ccnc2)c(Cl)c1.O=[N+]([O-])O (racemic) | 293 s | 49.3 s | 
CC1Oc2ccccc2/C(=N/OCc2ccc(Cl)cc2Cl)C1n1ccnc1.O=[N+]([O-])O (racemic) | 644 s | 42.8 s | 
CC1Oc2cc(Cl)ccc2/C(=N/OCc2ccc(Cl)cc2)C1n1ccnc1.O=[N+]([O-])O (racemic) | 286 s | 45.5 s | 
CC1Oc2cc(Cl)ccc2/C(=N/OCc2ccc(Cl)cc2Cl)C1n1ccnc1.O=[N+]([O-])O (racemic) | 776 s | 342 s | Activity (Rattus norvegicus [7]): Non-toxic; Activity (Rattus norvegicus [9]): 50%
Clc1ccc(CO/N=C2/c3ccccc3OCC2n2ccnc2)c(Cl)c1.O=[N+]([O-])O (racemic) | 358 s | 49.2 s | 
CC1Oc2ccccc2/C(=N/OCc2ccc(Cl)c(Cl)c2)C1n1ccnc1.O=[N+]([O-])O (racemic) | 367 s | 47.5 s | 
O=[N+]([O-])O.c1ccc(CO/N=C2\c3ccccc3OCC2n2ccnc2)cc1 (racemic) | 288 s | 50.8 s | 
Clc1ccc(CO/N=C2/c3ccccc3OCC2n2ccnc2)cc1.O=[N+]([O-])O (racemic) | 237 s | 52 s | 
